One assay concerns HepG2. Briefly: Cytotoxicity against human HepG2 cells assessed as reduction in cell viability after 48 hrs by CCK8 assay. As to conditions: HepG2, 48 h. It is filed as functional, cell-based. (In general: Tetrazolium assays rely on reduction of a dye to a coloured formazan, in cell work by metabolically active cells.)
A short description of assay [1]: Cytotoxicity against human LO2 cells assessed as reduction in cell viability after 48 hrs by CCK8 assay. As to conditions: L02, 48 h. The class given is cell-based.

These results are taken from ChEMBL document CHEMBL3580626, “Scaffold hopping of potential anti-tumor agents by WEGA: a shape-based approach” (Medchemcomm, 2014).

For `C1=Cc2ccccc2Nc2ccccc21` [IMINOSTILBENE], the IC50 in the assay on HepG2 (read-out: pIC50 (converted)) is more than 158 µM.

Turning to `CCN1c2ccccc2CCc2ccc(Cl)cc21`, the IC50 in the assay on HepG2 (read-out: pIC50 (converted)) is more than 158 µM.

Take `CC(C(=O)O)c1ccc2c(c1)[nH]c1ccc(Cl)cc12` (stereo unspecified) [CARPROFEN]: the IC50 in the assay with HepG2 (read-out: pIC50 (converted)) was 166 µM.

Take `CC(=O)N1c2ccccc2CCc2ccc(Cl)cc21`: the IC50 in the assay with HepG2 (read-out: pIC50 (converted)) was more than 158 µM.

For `COc1ccccc1OCCNCC(O)COc1cccc2[nH]c3ccccc3c12` (stereo unspecified) [CARVEDILOL], the IC50 in assay [1] is 85 µM; with HepG2 (read-out: pIC50 (converted)) it was 17.4 µM.

`COC1=Cc2ccccc2Nc2ccccc21`: the IC50 with HepG2 (read-out: pIC50 (converted)) is 70.8 µM.

For `Oc1cccc2[nH]c3ccccc3c12`, the IC50 in the assay with HepG2 (read-out: pIC50 (converted)) was 123 µM.

Take `c1ccc2c(c1)CCc1ccccc1N2`: the IC50 in the assay on HepG2 (read-out: pIC50 (converted)) was more than 158 µM.

On to `c1ccc2c(c1)Nc1ccccc1O2` [PHENOXAZINE], for which the IC50 in the assay with HepG2 (read-out: pIC50 (converted)) was 204 µM.

For the compound `CC(CN(C)C)CN1c2ccccc2Sc2ccccc21` (stereo unspecified) [METHYLPROMAZINE], the IC50 in the assay on HepG2 (read-out: pIC50 (converted)) was 61.7 µM.

Take `O=C(Cl)N1c2ccccc2C=Cc2ccccc21`: the IC50 in the assay on HepG2 (read-out: pIC50 (converted)) is 33.9 µM.

`c1ccc2c(c1)[nH]c1cccc(OCC3CO3)c12` (stereo unspecified): the IC50 in assay [1] was more than 160 µM; with HepG2 (read-out: pIC50 (converted)) it was 17 µM.

Take `CN1CCN(C2=Nc3cc(Cl)ccc3Nc3ccccc32)CC1` [CLOZAPINE]: the IC50 in the assay on HepG2 (read-out: pIC50 (converted)) is 47.9 µM.

`OCCN1CCN(CCCN2c3ccccc3Sc3ccc(C(F)(F)F)cc32)CC1` [FLUPHENAZINE]: the IC50 is more than 160 µM in assay [1], 4.4 µM with HepG2 (read-out: IC50) and 4.37 µM with HepG2 (read-out: pIC50 (converted)).

Consider `NC(=O)N1c2ccccc2C=Cc2ccccc21` [CARBAMAZEPINE], for which the IC50 with HepG2 (read-out: pIC50 (converted)) is more than 158 µM.

As for `OCCN1CCN(CCCN2c3ccccc3Sc3ccc(Cl)cc32)CC1` [PERPHENAZINE], the IC50 in assay [1] is more than 160 µM; in the assay on HepG2 (read-out: pIC50 (converted)), 16.2 µM.

For `CC(CN1c2ccccc2S(=O)(=O)c2ccccc21)N(C)C` (stereo unspecified), the IC50 in the assay on HepG2 (read-out: pIC50 (converted)) was more than 158 µM.

Turning to `NC(=O)N1c2ccccc2CC(=O)c2ccccc21` [OXCARBAZEPINE], the IC50 is more than 160 µM in assay [1] and 19.5 µM with HepG2 (read-out: pIC50 (converted)).

In the case of `CC(=O)N1c2ccccc2CCc2ccc(N)cc21`, in the assay with HepG2 (read-out: pIC50 (converted)), the IC50 was more than 158 µM.

On to `COC1=Cc2ccccc2N(C(N)=O)c2ccccc21`, for which the IC50 in the assay on HepG2 (read-out: pIC50 (converted)) was more than 158 µM.
